These results are taken from EP3098228A1, “POLYOXOMOLYBDATE-BISPHOSPHONATE COMPLEX CONTAINING A HETEROMETALLIC ION DIFFERENT FROM MOLYBDENUM” (CENTRE NATIONAL DE LA RECHERCHE SCIENTIFIQUE, priority 2015, dated 2016).

Read-outs that look alike come from different tables or passages of the source.

Series [1] concerns Human tumor cell lines MCF-7 (breast adenocarcinoma). The experiment in a line: Cell-growth inhibition assay (MTT cell proliferation assay, 4 days). Conditions: MCF-7, 4 days incubation. The format is cell-based. As to the method: Cells were plated at a density of 5000 cells/well.
Results are gathered in table 3 hereinafter. The results are shown on a molar basis (IC50 values, in µM) as well as on a per-bisphosphonate basis, which is more logical when comparisons are to be made with the pure bisphosphonates.
On the technique in general: Tetrazolium dyes change colour on reduction, which living cells bring about.

The test system of series [2] is MCF-7. The following applies: literature values, cited from earlier work.
For series [3], the system named is MCF-7. Description: Cell growth "rescue" experiments with geranylgeraniol (GGOH). The series is classed as cell-based, Human. Here is the method:
Addition of geranylgeraniol (GGOH) was tested on Mo4Zol2Mn.
Protocol Cell growth "rescue" experiments with geranylgeraniol were carried out as described previously, and namely in Y. Zhang, et al J. Am. Chem. Soc. 2009, 131, 51.
An increase in the IC50 indicates a direct role for the bisphosphonate moiety in cell growth inhibition.

The nature of series [4]: Solubility in water (remark in the solid state NMR section). The format is physicochemical. The source says: The broadening could be due either to the low crystallinity in Mo12(AlePy)4Pt4 and/or, a dynamic disorder, since we also observe a much less efficient CP transfer in CPMAS experiments when compared with Mo12(AlePy)4.
The mark [5] stands for this setting: measurement conditions not strictly identical to Table 3, read-out: IC50.
[6] abbreviates: per bisphosphonate, read-out: IC50 per BP.

As usually defined, the IC50 is the midpoint of a concentration-inhibition curve. `[Cl][Mn][Cl]` [MnCl2]: the IC50 in series [1] (molar basis, listed as Mn(II)Cl2, read-out: IC50) is about 740 µM; in series [1] (molar basis, read-out: IC50), 740 ± 140 µM.
As for `O=P(O)(O)C(O)(Cn1ccnc1)P(=O)(O)O` [Zol, zoledronate], the IC50 in series [2] (setting [5]) was 7.7 ± 2.6 µM; in series [2] (setting [6]), 7.7 µM; in series [3] (Homo sapiens, MCF7, with addition of geranylgeraniol (GGOH), read-out: IC50 +GGOH), 48 µM; in series [3] (Homo sapiens, MCF7, without GGOH, read-out: IC50), 15 µM; in series [1] (Homo sapiens, MCF7, 96 h, molar basis, read-out: IC50) it was 15 ± 2.6 µM; in series [1] (Homo sapiens, MCF7, 96 h, per-bisphosphonate basis, read-out: IC50 per BP) it was 15 ± 2.6 µM.
Regarding “Rb(NH4)4[(Mo2O6)2(O3PC(CH2C3H4N2)(O)PO3)2Mn].14H2O [Mo4Zol2Mn]”, the IC50 in series [3] (with addition of geranylgeraniol (GGOH), read-out: IC50 +GGOH) amounted to 7.6 µM; in series [3] (without GGOH, read-out: IC50), 1.3 µM; in series [1] (molar basis, read-out: IC50), 1.3 ± 0.24 µM; in series [1] (per-bisphosphonate basis, read-out: IC50 per BP), 2.6 ± 0.48 µM.
Take `NCCCC(O)(P(=O)(O)O)P(=O)(O)O` [Ale, alendronate]: the IC50 in series [2] (setting [5]) was 130 ± 2.2 µM; in series [2] (setting [6]), 130 µM.
Take “Na3{Na(Mo3O8)4[O3PCC3H6NH2CH2(C5H5N)(O)PO3]4} .25H20 [Mo12(AlePy)4]”: the solubility in water entry in series [4] is reported as “essentially insoluble in water”.
